Measurements taken from the NIST ThermoML archive (doi:10.1021/je301301j).

Assay: molar heat capacity at constant pressure; xn = mol fraction of the nth substance listed
Settings: 293.15 K, Liquid, Flow calorimetry

C=CCCCC [hex-1-ene] + CCCCO
molar heat capacity at constant pressure [J/K/mol]
Settings	x2 = 0	x2 = 0.1001	x2 = 0.2	x2 = 0.3002	x2 = 0.3999	x2 = 0.5018	x2 = 0.5997	x2 = 0.7002	x2 = 0.7999	x2 = 0.9
100 kPa	179.2	190.4	191.6	192.1	188.5	187.6	184.9	182.6	178.7	176.2
5000 kPa	174.9	187.5	188.7	189	186.7	185.6	183.1	180	177.5	175.7
10000 kPa	172.7	184.7	186.3	186.4	184	183.6	180.6	178.7	175.1	174
15000 kPa	169.9	182.6	183.1	185.1	182.5	182.1	178.5	177.1	173.8	172.1
20000 kPa	168.1	178.4	179.9	182.8	180.1	179.8	176.1	175.8	172.4	170.7
25000 kPa	165.7	176.7	178	180.1	178.8	178	174.8	173.5	170.7	169.3
